“Also recorded” adds a separate entry of the source. Where two headings read alike, the source gives them in different places.
How the values were obtained:
NF-κB [1] = assay: Measurement of NF-κB activation using THP1-Blue NF-κB cells (SEAP); type: cell-based; settings: for activity at 5 µM: 20 h, two point normalized, compound 1 as 200%; for NF-κB activity (SAR discussion, in words): evaluated in both the presence and absence of LPS
NF-κB [2] = assay: cell-based NF-κB FRET assay; settings: compound + LPS; two point normalized, compound 1 as 200%, LPS (10 ng/mL) as 100%
Text: Site A was assigned the 4-substituent of thiazole ring, site B was the thiazole ring itself, site C was the central amide bond in the structure, site D was the benzene ring bearing 1,4-carboxyl and sulfamoyl group, site E was the sulfonamide functional group and site F was the amide substituent on the sulfamoyl group.

THP-1 cells = assay: Cell viability assay (MTT); type: cell-based; settings: compound 5 μM alone, 18 h, normalized to DMSO as 100%
Description: THP-1 cells were plated in 96-well plates (10^5 cells/well) in 100 μL RPMI supplemented with 10% FBS, 100 U/mL penicillin and 100 μg/ml streptomycin. Compounds were dissolved in DMSO at 1 mM stock solution and were further diluted to 10 μM in the assay medium. 100 μL of this solution was added to the cells to obtain a final compound concentration of 5 μM ([…]). After 18 h incubation, a solution of MTT in assay media (0.5 mg/mL) was added to each well and further incubated for 4 to 6 h, followed by addition of cell lysis buffer (15% w/v SDS and 0.12% v/v 12N HCl aqueous solution), incubated overnight, and then absorbance measured at 570 nm using 650 nm as reference using Tecan Infinite M200 plate reader.

[3] = compound 5 μM + LPS, LPS (10 ng/mL) as 100%, read-out: NF-κB SEAP Compound + LPS % Activation
[4] = compound 5 μM alone, LPS or DMSO as 100%, read-out: NF-κB SEAP Compound alone % Activation

SMILES | activity at 5 µM (NF-κB [1]; [3]) | activity at 5 µM (NF-κB [1]; [4]) | NF-κB activity (SAR discussion, in words) (NF-κB [1]) | NF-κB FRET Compound + LPS % Activation (NF-κB [2]) | MTT Compound alone % Viability (THP-1 cells)
Cc1ccccc1-c1csc(NC(=O)c2ccc(S(=O)(=O)N3CCCCC3)cc2)n1 [Compound 12b, 4-(piperidin-1-ylsulfonyl)-N-(4-(o-tolyl)thiazol-2-yl)benzamide] | 105% | 99.2% | inactive | 100.13% | 95.69%
Cc1cccc(-c2csc(NC(=O)c3ccc(S(=O)(=O)N4CCCCC4)cc3)n2)c1 [Compound 12c, 4-(piperidin-1-ylsulfonyl)-N-(4-(m-tolyl)thiazol-2-yl)benzamide] | 98.6% | 99.5% | inactive | 78.98% | 96.06%
Cc1ccc(Br)c(-c2csc(NC(=O)c3ccc(S(=O)(=O)N4CCCCC4)cc3)n2)c1 [Compound 12d, N-(4-(2-bromo-5-methylphenyl)thiazol-2-yl)-4-(piperidin-1-ylsulfonyl)benzamide] | 223% | 254% | active; also recorded: most potent | 197.32% | 
Cc1ccc(Br)cc1-c1csc(NC(=O)c2ccc(S(=O)(=O)N3CCCCC3)cc2)n1 [Compound 12e, N-(4-(5-bromo-2-methylphenyl)thiazol-2-yl)-4-(piperidin-1-ylsulfonyl)benzamide] | 213% | 207% | active | 189.97% | 91.50%
Cc1ccc(C)c(Cc2csc(NC(=O)c3ccc(S(=O)(=O)N4CCCCC4)cc3)n2)c1 [Compound 12f, N-(4-(2,5-dimethylbenzyl)thiazol-2-yl)-4-(piperidin-1-ylsulfonyl)benzamide] | 108% | 102% | inactive |  | 97.02%
Cc1csc(NC(=O)c2ccc(S(=O)(=O)N3CCCCC3)cc2)n1 [Compound 12g, N-(4-methylthiazol-2-yl)-4-(piperidin-1-ylsulfonyl)benzamide] | 101% | 99.9% | None of these molecules had any NF-κB activity | 110.48% | 114.29%
CCc1csc(NC(=O)c2ccc(S(=O)(=O)N3CCCCC3)cc2)n1 [Compound 12h, N-(4-ethylthiazol-2-yl)-4-(piperidin-1-ylsulfonyl)benzamide] | 94% | 98.7% | None of these molecules had any NF-κB activity | 108.38% | 122.75%
CCCc1csc(NC(=O)c2ccc(S(=O)(=O)N3CCCCC3)cc2)n1 [Compound 12i, 4-(piperidin-1-ylsulfonyl)-N-(4-propylthiazol-2-yl)benzamide] | 94.2% | 99.2% | None of these molecules had any NF-κB activity | 112.46% | 122.66%
CC(C)(C)Cc1csc(NC(=O)c2ccc(S(=O)(=O)N3CCCCC3)cc2)n1 [Compound 12j, N-(4-neopentylthiazol-2-yl)-4-(piperidin-1-ylsulfonyl)benzamide] | 93.9% | 99.5% | None of these molecules had any NF-κB activity | 110.62% | 125.52%
CC(C)(C)c1csc(NC(=O)c2ccc(S(=O)(=O)N3CCCCC3)cc2)n1 [Compound 12k, N-(4-(tert-butyl)thiazol-2-yl)-4-(piperidin-1-ylsulfonyl)benzamide] | 94.1% | 99.5% | None of these molecules had any NF-κB activity |  | 127.74%
Cc1cccc(-c2csc(NC(=O)c3ccc(S(=O)(=O)N4CCCCC4)cc3)n2)c1C [Compound 12l, N-(4-(2,3-dimethylphenyl)thiazol-2-yl)-4-(piperidin-1-ylsulfonyl)benzamide] | 157% | 195% | retained activity | 206.60% | 98.37%
Cc1cccc(C)c1-c1csc(NC(=O)c2ccc(S(=O)(=O)N3CCCCC3)cc2)n1 [Compound 12p, N-(4-(2,6-dimethylphenyl)thiazol-2-yl)-4-(piperidin-1-ylsulfonyl)benzamide] | 209% | 185% | retained activity |  | 99.64%
O=C(Nc1nc(-c2cccc3ccccc23)cs1)c1ccc(S(=O)(=O)N2CCCCC2)cc1 [Compound 12q, N-(4-(naphthalen-1-yl)thiazol-2-yl)-4-(piperidin-1-ylsulfonyl)benzamide] | 200% | 198% | equally potent |  | 92.71%
CCc1ccc(C)c(-c2csc(NC(=O)c3ccc(S(=O)(=O)N4CCCCC4)cc3)n2)c1 [Compound 12u, N-(4-(5-ethyl-2-methylphenyl)thiazol-2-yl)-4-(piperidin-1-ylsulfonyl)benzamide] | 200% | 216% | resulted in activity |  | 
Cc1ccc(C)c(-c2cnc(NC(=O)c3ccc(S(=O)(=O)N4CCCCC4)cc3)s2)c1 [Compound 18e, N-(5-(2,5-dimethylphenyl)thiazol-2-yl)-4-(piperidin-1-ylsulfonyl)benzamide] | 95.1% | 98.3% | none of these molecules that replaced the thiazole functionality were active |  | 
Cc1ccc(C)c(-c2nnc(NC(=O)c3ccc(S(=O)(=O)N4CCCCC4)cc3)s2)c1 [Compound 18f, N-(5-(2,5-dimethylphenyl)-1,3,4-thiadiazol-2-yl)-4-(piperidin-1-ylsulfonyl)benzamide] | 148% | 99.7% | none of these molecules that replaced the thiazole functionality were active |  | 89.80%
Cc1ccc(C)c(-c2nc(NC(=O)c3ccc(S(=O)(=O)N4CCCCC4)cc3)sc2-c2ccccc2)c1 [Compound 18i, N-(4-(2,5-dimethylphenyl)-5-phenylthiazol-2-yl)-4-(piperidin-1-ylsulfonyl)benzamide] | 98.4% | 98.3% | completely inactive |  | 
CCOc1sc(NC(=O)c2ccc(S(=O)(=O)N3CCCCC3)cc2)nc1-c1cc(C)ccc1C [Compound 18l, N-(4-(2,5-dimethylphenyl)-5-ethoxythiazol-2-yl)-4-(piperidin-1-ylsulfonyl)benzamide] | 111% | 104% | partial activity |  | 
CCc1sc(NC(=O)c2ccc(S(=O)(=O)N3CCCCC3)cc2)nc1-c1cc(C)ccc1C [Compound 18r, N-(4-(2,5-dimethylphenyl)-5-ethylthiazol-2-yl)-4-(piperidin-1-ylsulfonyl)benzamide] | 179% | 179% | retained activity |  | 103.66%
Cc1ccc(C)c(-c2nc(NC(=O)c3ccc(S(=O)(=O)N4CCCCC4)cc3)sc2C#CCCCO)c1 [Compound 18u, N-(4-(2,5-dimethylphenyl)-5-(5-hydroxypent-1-yn-1-yl)thiazol-2-yl)-4-(piperidin-1-ylsulfonyl)benzamide] | 134% | 100% |  |  | 104.08%
C#CCN(C(=O)c1ccc(S(=O)(=O)N2CCCCC2)cc1)c1nc(-c2cc(C)ccc2C)cs1 [Compound 34d, N-(4-(2,5-dimethylphenyl)thiazol-2-yl)-4-(piperidin-1-ylsulfonyl)-N-(prop-2-yn-1-yl)benzamide] | 97.7% | 101% | inactive |  | 
Cc1ccc(C)c(-c2csc(NC(=O)c3ccc(S(=O)(=O)N4CCCCC4)s3)n2)c1 [Compound 46c, N-(4-(2,5-dimethylphenyl)thiazol-2-yl)-5-(piperidin-1-ylsulfonyl)thiophene-2-carboxamide] | 97.2% | 106% | none of these modifications at site D or E were tolerated |  | 
CCCC#Cc1sc(NC(=O)c2ccc(S(=O)(=O)N3CCC(CCC)CC3)cc2)nc1-c1cc(C)ccc1Br [Compound 65, N-(4-(2-bromo-5-methylphenyl)-5-(pent-1-yn-1-yl)thiazol-2-yl)-4-((4-propylpiperidin-1-yl)sulfonyl)benzamide] |  |  | very potent and showed better potency than compound 1 |  | 
